Laboratory results as given in patent publication US12692233B2, “Anthelmintic compounds comprising a pyridine structure” (Intervet Inc., priority 2020, dated 2026).

Tests used:
[1] = target: T1, human Maxi K channel (BK channel) (Homo sapiens, UniProt Q12791); test: Agonistic activity at the human Maxi K channel (BK channel), FLIPR membrane potential in CHO K1 cells; format: cell-based; settings: CHO K1 cells stably transfected with KCNMA1 and beta1 (KCNMB1) subunits, membrane potential dye
T1 construct: expressed in transfected cells; host or cells: CHO K1
T1 sequence (Q12791 1-1178 isoform Q12791-5): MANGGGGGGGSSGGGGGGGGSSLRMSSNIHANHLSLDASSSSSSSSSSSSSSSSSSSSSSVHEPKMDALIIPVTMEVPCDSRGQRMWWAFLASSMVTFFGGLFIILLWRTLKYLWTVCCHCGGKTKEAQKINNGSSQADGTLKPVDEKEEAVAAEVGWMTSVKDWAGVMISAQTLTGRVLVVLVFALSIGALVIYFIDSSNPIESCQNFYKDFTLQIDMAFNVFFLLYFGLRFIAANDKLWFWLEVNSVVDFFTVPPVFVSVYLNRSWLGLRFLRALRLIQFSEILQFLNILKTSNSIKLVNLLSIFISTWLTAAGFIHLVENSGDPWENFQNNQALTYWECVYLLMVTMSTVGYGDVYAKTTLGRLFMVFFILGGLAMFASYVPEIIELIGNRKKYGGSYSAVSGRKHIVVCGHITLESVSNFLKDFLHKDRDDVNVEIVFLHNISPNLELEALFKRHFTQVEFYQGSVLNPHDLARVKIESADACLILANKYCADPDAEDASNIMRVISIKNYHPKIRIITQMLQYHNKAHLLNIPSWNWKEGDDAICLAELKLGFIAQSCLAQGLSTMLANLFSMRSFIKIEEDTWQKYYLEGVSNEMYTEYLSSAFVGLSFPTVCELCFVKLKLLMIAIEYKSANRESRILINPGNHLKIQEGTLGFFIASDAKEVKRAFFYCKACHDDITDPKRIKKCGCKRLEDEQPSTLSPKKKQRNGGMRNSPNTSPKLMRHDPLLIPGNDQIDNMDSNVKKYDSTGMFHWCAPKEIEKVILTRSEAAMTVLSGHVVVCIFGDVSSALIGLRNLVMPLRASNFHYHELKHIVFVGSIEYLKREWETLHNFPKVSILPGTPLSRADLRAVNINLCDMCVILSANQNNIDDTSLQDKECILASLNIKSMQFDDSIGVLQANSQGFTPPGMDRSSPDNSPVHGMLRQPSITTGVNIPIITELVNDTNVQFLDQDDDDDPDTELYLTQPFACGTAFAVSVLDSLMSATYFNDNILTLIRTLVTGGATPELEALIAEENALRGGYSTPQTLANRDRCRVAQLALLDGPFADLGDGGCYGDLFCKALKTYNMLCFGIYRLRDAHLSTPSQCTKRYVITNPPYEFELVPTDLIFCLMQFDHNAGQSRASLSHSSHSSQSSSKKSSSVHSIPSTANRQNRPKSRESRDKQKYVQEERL
T1 sequence (Q16558 whole entry partner): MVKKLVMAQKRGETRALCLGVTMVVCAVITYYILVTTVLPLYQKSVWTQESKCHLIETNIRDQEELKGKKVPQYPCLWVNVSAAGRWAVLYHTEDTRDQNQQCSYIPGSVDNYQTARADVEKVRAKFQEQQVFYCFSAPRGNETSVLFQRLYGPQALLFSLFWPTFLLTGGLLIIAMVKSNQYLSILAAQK
Source text: A CHO K1 cell line was stably transfected with the KCNMA1 (KCa1.1, U11058) and beta1 (KCNMB1) subunits of the human Maxi K channel (Ponte et al, Molecular Pharmacology 2012, 81(4), 567-577).
The complete measurement takes 150 s.

[2] = target: C. elegans Slo-1a (Caenorhabditis elegans, UniProt Q95V25); test: Agonistic activity at C. elegans Slo-1a, FLIPR membrane potential in CHO K1 cells; settings: EC50 agonistic activity at C. elegans Slo-1a, CHO K1 cells stably transfected with slo-1a, membrane potential dye
C. elegans Slo-1a, sequence (Q95V25 whole entry): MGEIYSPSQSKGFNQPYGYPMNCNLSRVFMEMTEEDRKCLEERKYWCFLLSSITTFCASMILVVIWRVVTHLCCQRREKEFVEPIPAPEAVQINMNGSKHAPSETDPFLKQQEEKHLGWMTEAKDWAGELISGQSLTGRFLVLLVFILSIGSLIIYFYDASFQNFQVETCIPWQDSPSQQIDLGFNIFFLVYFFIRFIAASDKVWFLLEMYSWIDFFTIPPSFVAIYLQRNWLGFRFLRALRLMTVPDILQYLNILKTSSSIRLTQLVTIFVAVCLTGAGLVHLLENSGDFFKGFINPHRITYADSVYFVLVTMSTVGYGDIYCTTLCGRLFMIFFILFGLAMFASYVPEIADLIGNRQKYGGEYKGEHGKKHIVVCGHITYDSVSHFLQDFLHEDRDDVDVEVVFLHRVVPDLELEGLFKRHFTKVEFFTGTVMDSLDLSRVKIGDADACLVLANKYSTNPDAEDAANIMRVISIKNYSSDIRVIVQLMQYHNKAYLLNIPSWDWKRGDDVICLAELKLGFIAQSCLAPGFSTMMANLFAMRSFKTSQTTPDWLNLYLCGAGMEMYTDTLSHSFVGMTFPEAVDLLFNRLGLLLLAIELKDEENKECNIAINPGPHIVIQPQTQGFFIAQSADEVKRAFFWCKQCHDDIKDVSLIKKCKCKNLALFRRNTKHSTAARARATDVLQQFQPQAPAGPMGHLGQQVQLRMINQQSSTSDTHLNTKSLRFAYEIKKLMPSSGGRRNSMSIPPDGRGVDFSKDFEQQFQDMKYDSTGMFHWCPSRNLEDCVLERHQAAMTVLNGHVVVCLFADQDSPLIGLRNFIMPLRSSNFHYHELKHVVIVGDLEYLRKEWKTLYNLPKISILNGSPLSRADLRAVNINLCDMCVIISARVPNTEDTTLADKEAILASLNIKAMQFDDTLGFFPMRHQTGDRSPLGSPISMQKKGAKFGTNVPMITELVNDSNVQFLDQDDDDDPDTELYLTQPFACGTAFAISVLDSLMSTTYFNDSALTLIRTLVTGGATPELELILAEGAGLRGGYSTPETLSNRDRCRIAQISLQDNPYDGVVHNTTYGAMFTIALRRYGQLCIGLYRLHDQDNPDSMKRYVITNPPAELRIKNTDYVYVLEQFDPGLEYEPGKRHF
Protocol: A CHO K1 cell line stably transfected with the Caenorhabditis elegans slo-1a (accession no Y51A2D.19a) was established. Cells were seeded in microtiter plates (black 384-well MTP, clear bottom) in a concentration of 10,000 cells/well in 25 μl medium and cultured for 20 to 24 hours at 37° C. and 5% CO2. After incubation, 25 μl of FMP-dye Blue-Tyrode's was added to each well and incubated at room temperature for 30 min. Ten minutes after addition of 12.5 μl compound solution, the plates are transferred to the FLIPR for measurement.
For the membrane potential measurements, the plates were placed in the FLIPR Penta (Molecular Devices). The baseline measurement of the fluorescence was stared for 20 sec (Exc. 510-545 nm, Emm. 565-625 nm). Potential channel opening measurement was started by addition of 25 μl of KCl-Tyrode (final assay concentration of the KCl-Tyrode: 70 mM KCl, 2 mM CaCl2, 1 mM MgCl2, 0.8 mM NaH2PO4, 5 mM Glucose, 28 mM Hepes, pH 7.4, including the voltage sensitive dye). The complete measurement takes 150 s.
EC50 values were determined in triplicate utilizing compound dilution series. The data were determined at least in two independent tests. The data were proceeded by using the ActivityBase XE Runner software (IDBS) for curve fitting and calculation of the half-maximal effective concentration.

[3] = tested on: Ascaridia galli; test: In vitro assay Ascaridia galli larval stage 3; format: cell-based; settings: larval stage 3, 20 larvae per well, microscopic examination, read-out: MEC (minimum effective concentration) against Ascaridia galli L3
Source text: (§1) […] galli (intestinal roundworm of chicken), larval stage 3 (“L3”); and Oesophagostumum dentatum (nodular worm of swine), larval stages 3 and 4 (respectively “L3” and “L4”) where suspended in a nutrient medium and distributed to 96 well plates with 20 larvae per well. The wells were spiked DMSO solutions of the compounds with declining concentration.

[4] = tested on: Oesophagostumum dentatum; test: In vitro assay Oesophagostumum dentatum larval stage 3; format: cell-based; settings: larval stage 3, 20 larvae per well, microscopic examination; read-out: MEC (minimum effective concentration) against Oesophagostumum dentatum L3
Source text: as §1

SMILES: O=C(N[C@H]1CCOc2ccccc21)c1cnc(Oc2cccc(Cl)c2Cl)cc1N1CCOCC1 [Compound 12]
- EC50 [1]: > 30 µM
- EC50 [2]: < 1 µM

SMILES: CN(C)c1cc(Sc2cccc(Cl)c2Cl)ncc1C(=O)Nc1csc2ccccc12 [Compound 44]
- EC50 [1]: > 30 µM

SMILES: CN(C)c1cc(Oc2cc(Cl)cc(Cl)c2)ncc1C(=O)N[C@H]1CCOc2ccccc21 [Compound 30]
- EC50 [1]: > 30 µM
- EC50 [2]: < 1 µM

SMILES: CN(C)c1cc(Sc2cccc(Cl)c2Cl)ncc1C(=O)N[C@H]1CCc2ccccc21 [Compound 42]
- EC50 [1]: > 30 µM
- EC50 [2]: < 1 µM

SMILES: O=C(N[C@H]1CCc2ccccc21)c1cnc(Oc2cc(Cl)cc(Cl)c2)cc1N1CCOCC1 [Compound 25, (S)-6-(3,5-dichlorophenoxy)-N-(2,3-dihydro-1H-inden-1-yl)-4-morpholinonicotinamide]
- EC50 [1]: > 30 µM

SMILES: O=C(Nc1csc2ccccc12)c1cnc(Sc2cc(Cl)cc(Cl)c2)cc1N1CCOCC1 [Compound 27]
- EC50 [1]: > 30 µM
- minimal effective concentration [3]: ≤ 50 µM

SMILES: CSc1cc(Sc2cc(Cl)cc(Cl)c2)ncc1C(=O)N[C@H]1CCc2ccccc21 [Compound 65]
- EC50 [1]: > 30 µM
- EC50 [2]: < 10 µM

SMILES: CCOc1cc(Oc2cccc(Cl)c2Cl)ncc1C(=O)N[C@H]1CCCc2ccccc21 [Compound 91]
- EC50 [1]: > 30 µM

SMILES: CCSc1cc(Oc2cccc(Cl)c2Cl)ncc1C(=O)N[C@H]1CCc2ccccc21 [Compound 78]
- EC50 [1]: > 30 µM

SMILES: CN(C)c1cc(Sc2cc(Cl)cc(Cl)c2)ncc1C(=O)Nc1csc2ccccc12 [Compound 33]
- EC50 [1]: > 30 µM
- minimal effective concentration [3]: ≤ 50 µM

SMILES: CN(C)c1cc(Sc2cccc(Cl)c2Cl)ncc1C(=O)N[C@H]1CCOc2ccccc21 [Compound 20]
- EC50 [1]: > 30 µM
- EC50 [2]: < 1 µM

SMILES: O=C(N[C@H]1CCOc2ccccc21)c1cnc(Nc2cc(Cl)cc(Cl)c2)cc1N1CCOCC1 [Compound 107]
- EC50 [1]: 10 to 30 µM
- EC50 [2]: < 10 µM
- minimal effective concentration [3]: ≤ 50 µM

SMILES: O=C(Nc1cccc2ccccc12)c1cnc(Sc2cccc(Cl)c2Cl)cc1N1CCOCC1 [Compound 49]
- EC50 [1]: > 30 µM
- minimal effective concentration [3]: ≤ 50 µM

SMILES: CSc1cc(Oc2cc(Cl)cc(Cl)c2)ncc1C(=O)N[C@@H]1CCOc2ccccc21 [Compound 60]
- minimal effective concentration [4]: ≤ 50 µM
- EC50 [1]: > 30 µM

SMILES: CCSc1cc(Oc2cc(Cl)cc(Cl)c2)ncc1C(=O)N[C@H]1CCCc2ccccc21 [Compound 79]
- EC50 [1]: > 30 µM

SMILES: CSc1cc(Oc2cccc(Cl)c2Cl)ncc1C(=O)N[C@H]1CCc2ccccc21 [Compound 58]
- EC50 [1]: > 30 µM
- EC50 [2]: < 10 µM
- minimal effective concentration [3]: ≤ 50 µM

SMILES: O=C(Nc1csc2ccccc12)c1cnc(Oc2cc(Cl)cc(Cl)c2)cc1N1CCOCC1 [Compound 47]
- EC50 [1]: > 30 µM
- minimal effective concentration [3]: ≤ 50 µM

SMILES: O=C(N[C@H]1CCCc2ccccc21)c1cnc(Oc2cccc(Cl)c2Cl)cc1N1CCOCC1 [Compound 6]
- EC50 [1]: > 30 µM
- EC50 [2]: < 1 µM

SMILES: O=C(Nc1cccc2ccccc12)c1cnc(Oc2cc(Cl)cc(Cl)c2)cc1N1CCOCC1 [Compound 26]
- EC50 [1]: > 30 µM
- minimal effective concentration [3]: ≤ 50 µM

SMILES: O=C(N[C@H]1CCCc2ccccc21)c1cnc(Nc2cc(Cl)cc(Cl)c2)cc1N1CCOCC1 [Compound 106]
- EC50 [1]: > 30 µM
- EC50 [2]: < 10 µM
- minimal effective concentration [3]: ≤ 50 µM

SMILES: CSc1cc(Sc2cc(Cl)cc(Cl)c2)ncc1C(=O)N[C@H]1CCCc2ccccc21 [Compound 69]
- EC50 [1]: > 30 µM
- EC50 [2]: < 10 µM

SMILES: O=C(N[C@H]1CCOc2ccccc21)c1cnc(Sc2cccc(Cl)c2Cl)cc1N1CCOCC1 [Compound 22]
- EC50 [1]: > 30 µM
- EC50 [2]: < 1 µM

SMILES: CCSc1cc(Sc2cccc(Cl)c2Cl)ncc1C(=O)N[C@H]1CCc2ccccc21 [Compound 64]
- EC50 [1]: > 30 µM

SMILES: CSc1cc(Oc2cccc(Cl)c2Cl)ncc1C(=O)N[C@H]1CCCc2ccccc21 [Compound 56]
- EC50 [1]: > 30 µM
- EC50 [2]: < 10 µM
- minimal effective concentration [3]: ≤ 50 µM

SMILES: O=C(N[C@H]1CCOc2ccccc21)c1cnc(Sc2cc(Cl)cc(Cl)c2)cc1N1CCOCC1 [Compound 3, (S)—N-(chroman-4-yl)-6-((3,5-dichlorophenyl)thio)-4-morpholinonicotinamide]
- EC50 [1]: > 30 µM
- EC50 [2]: < 1 µM

SMILES: CN(C)c1cc(Sc2cc(Cl)cc(Cl)c2)ncc1C(=O)N[C@H]1CCc2ccccc21 [Compound 15]
- EC50 [1]: > 30 µM
- EC50 [2]: < 1 µM

SMILES: O=C(N[C@H]1CCCc2ccccc21)c1cnc(Oc2cc(Cl)cc(Cl)c2)cc1N1CCOCC1 [Compound 8]
- EC50 [1]: > 30 µM
- EC50 [2]: < 1 µM

SMILES: CCOc1cc(Oc2cc(Cl)cc(Cl)c2)ncc1C(=O)N[C@H]1CCCc2ccccc21 [Compound 98]
- EC50 [1]: > 30 µM

SMILES: CN(C)c1cc(Sc2cccc(Cl)c2Cl)ncc1C(=O)Nc1cccc2ccccc12 [Compound 43]
- EC50 [1]: > 30 µM

SMILES: O=C(Nc1cccc2ccccc12)c1cnc(Sc2cc(Cl)cc(Cl)c2)cc1N1CCOCC1 [Compound 10]
- EC50 [1]: > 30 µM
- minimal effective concentration [3]: ≤ 50 µM

SMILES: CCSc1cc(Sc2cccc(Cl)c2Cl)ncc1C(=O)N[C@H]1CCOc2ccccc21 [Compound 63]
- EC50 [1]: > 30 µM

SMILES: CCSc1cc(Oc2cc(Cl)cc(Cl)c2)ncc1C(=O)N[C@H]1CCc2ccccc21 [Compound 81]
- EC50 [1]: > 30 µM

SMILES: CCSc1cc(Oc2cccc(Cl)c2Cl)ncc1C(=O)N[C@H]1CCCc2ccccc21 [Compound 76]
- EC50 [1]: > 30 µM

SMILES: CN(C)c1cc(Oc2cc(Cl)cc(Cl)c2)ncc1C(=O)N[C@H]1CCc2ccccc21 [Compound 31]
- EC50 [1]: > 30 µM
- EC50 [2]: < 1 µM

SMILES: O=C(N[C@H]1CCCc2ccccc21)c1cnc(Sc2cc(Cl)cc(Cl)c2)cc1N1CCOCC1 [Compound 9]
- EC50 [1]: > 30 µM
- EC50 [2]: < 1 µM

SMILES: CSc1cc(Oc2cc(Cl)cc(Cl)c2)ncc1C(=O)N[C@H]1CCc2ccccc21 [Compound 61]
- EC50 [1]: > 30 µM
- minimal effective concentration [3]: ≤ 50 µM

SMILES: O=C(N[C@H]1CCOc2ccccc21)c1cnc(Oc2cc(Cl)cc(Cl)c2)cc1N1CCOCC1 [Compound 5]
- EC50 [1]: > 30 µM
- EC50 [2]: < 1 µM

SMILES: CSc1cc(Oc2cc(Cl)cc(Cl)c2)ncc1C(=O)N[C@H]1CCCc2ccccc21 [Compound 59]
- EC50 [1]: > 30 µM
- EC50 [2]: < 10 µM

SMILES: CCSc1cc(Sc2cc(Cl)cc(Cl)c2)ncc1C(=O)N[C@H]1CCCc2ccccc21 [Compound 75]
- EC50 [1]: > 30 µM

SMILES: CN(C)c1cc(Oc2cc(Cl)cc(Cl)c2)ncc1C(=O)N[C@H]1CCCc2ccccc21 [Compound 28]
- EC50 [1]: > 30 µM
- EC50 [2]: < 1 µM
- minimal effective concentration [3]: ≤ 50 µM

SMILES: CN(C)c1cc(Nc2cc(Cl)cc(Cl)c2)ncc1C(=O)N[C@H]1CCCc2ccccc21 [Compound 108]
- EC50 [1]: > 30 µM
- EC50 [2]: < 10 µM
- minimal effective concentration [3]: ≤ 50 µM

SMILES: CN(C)c1cc(Sc2cc(Cl)cc(Cl)c2)ncc1C(=O)N[C@H]1CCCc2ccccc21 [Compound 14]
- EC50 [1]: > 30 µM
- EC50 [2]: < 10 µM
- minimal effective concentration [3]: ≤ 50 µM

SMILES: CCOc1cc(Oc2cc(Cl)cc(Cl)c2)ncc1C(=O)N[C@H]1CCOc2ccccc21 [Compound 89]
- EC50 [1]: > 30 µM

SMILES: CN(C)c1cc(Oc2cc(Cl)cc(Cl)c2)ncc1C(=O)Nc1csc2ccccc12 [Compound 38]
- EC50 [1]: > 30 µM

SMILES: CN(C)c1cc(Sc2cccc(Cl)c2Cl)ncc1C(=O)N[C@H]1CCCc2ccccc21 [Compound 19]
- EC50 [1]: > 30 µM
- EC50 [2]: < 1 µM
- minimal effective concentration [3]: ≤ 50 µM

SMILES: CN(C)c1cc([S+]([O-])c2cc(Cl)cc(Cl)c2)ncc1C(=O)N[C@H]1CCc2ccccc21 (stereo partly drawn) [Compound 104, 6-((3,5-dichlorophenyl)sulfinyl)-N—((S)-2,3-dihydro-1H-inden-1-yl)-4-(dimethylamino)nicotinamide]
- EC50 [1]: > 30 µM

SMILES: COc1cc(Oc2cc(Cl)cc(Cl)c2)ncc1C(=O)N[C@H]1CCc2ccccc21 [Compound 87]
- EC50 [1]: > 30 µM

SMILES: CCSc1cc(Oc2cc(Cl)cc(Cl)c2)ncc1C(=O)N[C@H]1CCOc2ccccc21 [Compound 80]
- EC50 [1]: > 30 µM
- minimal effective concentration [3]: ≤ 50 µM

SMILES: CSc1cc(Sc2cccc(Cl)c2Cl)ncc1C(=O)N[C@H]1CCCc2ccccc21 [Compound 54]
- EC50 [1]: > 30 µM
- EC50 [2]: < 10 µM
- minimal effective concentration [3]: ≤ 50 µM

SMILES: CCSc1cc(Oc2cccc(Cl)c2Cl)ncc1C(=O)N[C@H]1CCOc2ccccc21 [Compound 77]
- EC50 [1]: > 30 µM

SMILES: CN(C)c1cc(Sc2cc(Cl)cc(Cl)c2)ncc1C(=O)N[C@H]1CCOc2ccccc21 [Compound 13]
- EC50 [1]: > 30 µM

SMILES: CCOc1cc(Sc2cccc(Cl)c2Cl)ncc1C(=O)N[C@H]1CCCc2ccccc21 [Compound 70]
- EC50 [1]: > 30 µM

SMILES: CCOc1cc(Oc2cccc(Cl)c2Cl)ncc1C(=O)N[C@H]1CCc2ccccc21 [Compound 93]
- EC50 [1]: > 30 µM

SMILES: O=C(N[C@@H]1CCOc2ccccc21)c1cnc(Oc2cccc(Cl)c2Cl)cc1N1CCOCC1 [Compound 51]
- EC50 [1]: > 30 µM

SMILES: CN(C)c1cc(S(=O)(=O)c2cc(Cl)cc(Cl)c2)ncc1C(=O)N[C@H]1CCc2ccccc21 [Compound 105]
- EC50 [1]: > 30 µM

SMILES: O=C(N[C@H]1CCc2ccccc21)c1cnc(Sc2cc(Cl)cc(Cl)c2)cc1N1CCOCC1 [Compound 11]
- EC50 [1]: > 30 µM
- EC50 [2]: < 1 µM

SMILES: O=C(N[C@H]1CCc2ccccc21)c1cnc(Oc2cccc(Cl)c2Cl)cc1N1CCOCC1 [Compound 7]
- EC50 [1]: > 30 µM
- EC50 [2]: < 1 µM

SMILES: CCOc1cc(Sc2cccc(Cl)c2Cl)ncc1C(=O)N[C@H]1CCOc2ccccc21 [Compound 71]
- EC50 [1]: > 30 µM
- EC50 [2]: < 10 µM

SMILES: CCOc1cc(Sc2cc(Cl)cc(Cl)c2)ncc1C(=O)N[C@H]1CCOc2ccccc21 [Compound 88]
- EC50 [1]: > 30 µM
- EC50 [2]: < 10 µM
